Experimental data: publication PMC5734605 (Journal of Medicinal Chemistry, 2017)

Biological target: TbNMT (Trypanosoma brucei brucei, UniProt Q388H8)
Sequence (Q388H8 1-446): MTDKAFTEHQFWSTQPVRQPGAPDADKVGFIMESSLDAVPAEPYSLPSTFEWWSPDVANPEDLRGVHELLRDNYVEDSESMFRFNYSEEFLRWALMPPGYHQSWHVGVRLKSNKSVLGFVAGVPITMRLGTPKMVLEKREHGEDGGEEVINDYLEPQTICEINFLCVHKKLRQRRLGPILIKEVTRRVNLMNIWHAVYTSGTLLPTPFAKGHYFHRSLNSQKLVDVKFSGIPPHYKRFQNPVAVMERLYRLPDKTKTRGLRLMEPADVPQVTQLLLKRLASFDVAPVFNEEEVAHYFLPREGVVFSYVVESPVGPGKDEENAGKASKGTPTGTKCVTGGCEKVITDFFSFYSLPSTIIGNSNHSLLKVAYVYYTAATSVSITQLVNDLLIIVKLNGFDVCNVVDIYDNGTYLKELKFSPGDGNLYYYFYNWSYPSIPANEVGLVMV

Row | Molecule | activity against TbNMT (in words)
1 | 3-((2,6-Dichloro-4-(3-(piperidin-4-yl)propyl)phenoxy)methyl)-2-methylpyridine [Compound 70] | no in vitro activity
2 | Cc1nn(C)c(C)c1COc1cccc(-c2cccc(C3CCNCC3)c2)c1 [Compound 17, 4-(3′-((1,3,5-Trimethyl-1H-pyrazol-4-yl)methoxy)-[1,1′-biphenyl]-3-yl)piperidine] | completely inactive
